Experiments:
[1] = tested on: Plasmopara viticola; experiment: Downy Mildew of Grape (PLASVI), 96 hour protectant; assay type: in vivo; conditions: grape vines (cultivar Carignane), sprayed at 100 ppm, inoculated after 96 hours (protectant)
Method: Compound Formulation: […] Final treatment volumes were obtained by adding nine volumes 0.05kOO aqueous Tween-20 or Triton X-100, depending upon the pathogen. Downy Mildew of Grape (Plasmogara viticola-[…]) (96 Hour Protectant): Vines (cultivar Carignane) were grown from seed in a soilless peat-based potting mixture (Metromix) until the seedlings were 10-20 cm tall. These plants were then sprayed to run off with the test compound at a rate of 100 ppm. After 96 hours the test plants were inoculated by spraying with an aqueous sporangia suspension of Plasmopara viticola. The plants were then transferred to the greenhouse until disease developed on the untreated control plants. The following table presents the activity of typical compounds of the present invention when evaluated in these experiments. The effectiveness of the test compounds in controlling disease was rated using the following scale: […]

[2] = tested on: Erysiphe graminis; experiment: Powdery Mildew of Wheat (ERYSGT); assay type: in vivo; conditions: wheat (cultivar Monon), inoculated, sprayed at 25 ppm after 48 hours
Method: Compound Formulation: […] Final treatment volumes were obtained by adding nine volumes 0.05kOO aqueous Tween-20 or Triton X-100, depending upon the pathogen. Powdery Mildew of Wheat (Erysiphe graminis-[…]): Wheat (cultivar Monon) was grown in a soilless peat-based potting mixture (Metromix) until the seedlings were 1-2 leaf (BBCH 12). These plants were then inoculated with Erysiphe graminis by dusting spores from stock plants onto the test plants. After 48 hours the plants were sprayed to run off with the test compound at a rate of 25 ppm and then kept in the greenhouse until disease developed on the untreated control plants. The following table presents the activity of typical compounds of the present invention when evaluated in these experiments. The effectiveness of the test compounds in controlling disease was rated using the following scale: […]

| Compound | PLASVI control of plant disease [1] | ERYSGT control of plant disease [2] |
| --- | --- | --- |
| CNC(=O)C(=NOC)c1ccccc1COc1nc(OCCOC)c(Cl)cc1Cl [Compound 33] | ++ (++ = 75-100 % control of plant disease) | + (+ = 25-74% control of plant disease) |
| CNC(=O)C(=NOC)c1ccccc1COc1cccc(OCC2(C)COC2)n1 [Compound 7] | + (+ = 25-74% control of plant disease) | ++ (++ = 75-100 % control of plant disease) |
| CCCCSCCOc1cccc(OCc2ccccc2C(=NOC)C(=O)NC)n1 [Compound 47] | ++ (++ = 75-100 % control of plant disease) | ++ (++ = 75-100 % control of plant disease) |
| CNC(=O)C(=NOC)c1ccccc1COc1cccc(Sc2cccs2)n1 [Compound 15] | ++ (++ = 75-100 % control of plant disease) | ++ (++ = 75-100 % control of plant disease) |
| CNC(=O)C(=NOC)c1ccccc1COc1cccc(OCCOCc2ccccc2)n1 [Compound 51] | ++ (++ = 75-100 % control of plant disease) | ++ (++ = 75-100 % control of plant disease) |
| CNC(=O)C(=NOC)c1ccccc1COc1cccc(OCCOC)n1 [Compound 25] | ++ (++ = 75-100 % control of plant disease) | ++ (++ = 75-100 % control of plant disease) |
| CCOCCNc1nc(OCc2ccccc2C(=NOC)C(=O)NC)c(Cl)cc1Cl [Compound 23] | ++ (++ = 75-100 % control of plant disease) | ++ (++ = 75-100 % control of plant disease) |
| CCCOC(C)COc1cccc(OCc2ccccc2C(=NOC)C(=O)NC)n1 (centres unmarked) [Compound 32] |  | ++ (++ = 75-100 % control of plant disease) |
| CNC(=O)C(=NOC)c1ccccc1COc1cccc(Oc2ccc(OC)cc2)n1 [Compound 38] |  | ++ (++ = 75-100 % control of plant disease) |
| CCCCOCCOc1cccc(OCc2ccccc2C(=NOC)C(=O)NC)n1 [Compound 46] | ++ (++ = 75-100 % control of plant disease) | + (+ = 25-74% control of plant disease) |
| CCCOC(C)COc1nc(OCc2ccccc2C(=NOC)C(=O)NC)c(Cl)cc1Cl (centres unmarked) [Compound 26] | + (+ = 25-74% control of plant disease) | ++ (++ = 75-100 % control of plant disease) |
| CCCOCCOc1cccc(OCc2c(F)cccc2C(=NOC)C(=O)NC)n1 [Compound 59] | ++ (++ = 75-100 % control of plant disease) |  |
| CCOc1cccc(Oc2cccc(OCc3ccccc3C(=NOC)C(=O)NC)n2)c1 [Compound 67] | ++ (++ = 75-100 % control of plant disease) |  |
| CNC(=O)C(=NOC)c1ccccc1COc1nc(OCc2ccco2)c(Cl)cc1Cl [Compound 4] | − (− = 0-24% control of plant disease) | − (− = 0-24% control of plant disease) |
| CCCOCCOc1cccc(OCc2ccccc2C(=NOC)C(=O)NC)n1 [Compound 31] | ++ (++ = 75-100 % control of plant disease) | ++ (++ = 75-100 % control of plant disease) |
| CCCOCCOc1cccc(OCc2ccccc2C(=NOC)C(=O)NC)n1 [Compound 36] | ++ (++ = 75-100 % control of plant disease) | + (+ = 25-74% control of plant disease) |
| CNC(=O)C(=NOC)c1ccccc1COc1cccc(OCC(C)OC)n1 (centres unmarked) [Compound 30] | ++ (++ = 75-100 % control of plant disease) | ++ (++ = 75-100 % control of plant disease) |
| CCCOCCOc1nc(OCc2ccccc2C(=NOC)C(=O)NC)c(Cl)cc1Cl [Compound 29] | ++ (++ = 75-100 % control of plant disease) | + (+ = 25-74% control of plant disease) |
| CNC(=O)C(=NOC)c1ccccc1COc1cccc(Sc2ccccc2OC(F)(F)F)n1 [Compound 41] | ++ (++ = 75-100 % control of plant disease) | + (+ = 25-74% control of plant disease) |

| Compound | PLASVI control of plant disease [1] | ERYSGT control of plant disease [2] |
| --- | --- | --- |
| CNC(=O)C(=NOC)c1ccccc1COc1cccc(OCC2CCCCO2)n1 (centres unmarked) [Compound 9] | ++ (++ = 75-100 % control of plant disease) | + (+ = 25-74% control of plant disease) |
| CNC(=O)C(=NOC)c1ccccc1COc1nc(OCC(C)OC)c(Cl)cc1Cl (centres unmarked) [Compound 28] | ++ (++ = 75-100 % control of plant disease) | ++ (++ = 75-100 % control of plant disease) |
| CNC(=O)C(=NOC)c1ccccc1COc1cccc(Sc2cccc(OC)c2)n1 [Compound 39] |  | ++ (++ = 75-100 % control of plant disease) |
| CCCCSCCOc1cccc(OCc2ccccc2C(=NOC)C(=O)NC)n1 [Compound 48] | + (+ = 25-74% control of plant disease) | − (− = 0-24% control of plant disease) |
| CNC(=O)C(=NOC)c1ccccc1COc1cccc(OCC2COC(C(F)(F)F)(C(F)(F)F)O2)n1 (centres unmarked) [Compound 11] | ++ (++ = 75-100 % control of plant disease) |  |
| CNC(=O)C(=NOC)c1ccccc1COc1cccc(Sc2nnc(SC)s2)n1 [Compound 12] | − (− = 0-24% control of plant disease) | − (− = 0-24% control of plant disease) |
| CNC(=O)C(=NOC)c1ccccc1COc1cccc(OCC2CCCO2)n1 (centres unmarked) [Compound 10] | + (+ = 25-74% control of plant disease) | ++ (++ = 75-100 % control of plant disease) |
| CNC(=O)C(=NOC)c1ccccc1COc1cccc(Sc2ccc(SC)cc2)n1 [Compound 43] | ++ (++ = 75-100 % control of plant disease) | − (− = 0-24% control of plant disease) |
| CCSCCSc1cccc(OCc2ccccc2C(=NOC)C(=O)NC)n1 [Compound 50] | ++ (++ = 75-100 % control of plant disease) | − (− = 0-24% control of plant disease) |
| CNC(=O)C(=NOC)c1ccccc1COc1cccc(Sc2ccccc2OC)n1 [Compound 42] | ++ (++ = 75-100 % control of plant disease) | ++ (++ = 75-100 % control of plant disease) |
| CNC(=O)C(=NOC)c1ccccc1COc1cccc(OCCOc2ccccc2)n1 [Compound 49] | ++ (++ = 75-100 % control of plant disease) | ++ (++ = 75-100 % control of plant disease) |
| CNC(=O)C(=NOC)c1ccccc1COc1cccc(OCC2COC(C)(C(F)(F)F)O2)n1 (centres unmarked) [Compound 6] |  | ++ (++ = 75-100 % control of plant disease) |
| CCCOc1ccc(Sc2cccc(OCc3ccccc3C(=NOC)C(=O)NC)n2)cc1 [Compound 87] |  | ++ (++ = 75-100 % control of plant disease) |
| CNC(=O)C(=NOC)c1ccccc1COc1cccc(OCc2ccco2)n1 [Compound 8] | ++ (++ = 75-100 % control of plant disease) | − (− = 0-24% control of plant disease) |
| CNC(=O)C(=NOC)c1ccccc1COc1nc(OCc2ccco2)c(Cl)cc1Cl [Compound 3] | ++ (++ = 75-100 % control of plant disease) | + (+ = 25-74% control of plant disease) |
| CCOCCOc1cccc(OCc2c(Cl)cccc2C(=NOC)C(=O)NC)n1 [Compound 63] | ++ (++ = 75-100 % control of plant disease) |  |
| CCSCCOc1cccc(OCc2ccccc2C(=NOC)C(=O)NC)n1 [Compound 45] | ++ (++ = 75-100 % control of plant disease) | + (+ = 25-74% control of plant disease) |
| CNC(=O)C(=NOC)c1ccccc1COc1cccc(SCc2ccc(OC)cc2)n1 [Compound 34] | ++ (++ = 75-100 % control of plant disease) | ++ (++ = 75-100 % control of plant disease) |
